Experiments:
CYP3A4 [1] = biological target: T1, CYP3A4 (Homo sapiens, UniProt P08684); assay: (§1) Inhibition of CYP3A4 in human liver microsomes in presence of NADPH; type: ADME, Microsome; settings: human, liver microsomes
Cytochrome P450 3A4 [2] = biological target: T2, Cytochrome P450 3A4 (Homo sapiens, UniProt P08684); assay: as §1; type: ADME, Microsome
Homo sapiens [3] = species: Homo sapiens; assay: Inhibition of CYP2B6 in human assessed as increase of bupropion systemic exposure; type: ADME, organism-based; design: scale not given: the % may be the effect or the level left; settings: in vivo
Homo sapiens [4] = species: Homo sapiens; assay: Inhibition of CYP2B6 in human assessed as decrease of hydroxybupropion metabolite systemic exposure; type: ADME, organism-based; design: scale not given: the % may be the effect or the level left; settings: in vivo
CYP3A4 [5] = biological target: T1, CYP3A4; assay: (§2) Time dependent inhibition of CYP3A4 in human liver microsomes; type: ADME, Microsome; settings: human, liver microsomes
Cytochrome P450 3A4 [6] = biological target: T2, Cytochrome P450 3A4; assay: as §2; type: ADME, Microsome
Cytochrome P450 2C9 = Cytochrome P450 2C9 (Homo sapiens, UniProt P11712); assay: Reversible inhibition of CYP2C9 in human liver microsomes; type: ADME, Microsome
Sequence of Cytochrome P450 2C9 (P11712 whole entry): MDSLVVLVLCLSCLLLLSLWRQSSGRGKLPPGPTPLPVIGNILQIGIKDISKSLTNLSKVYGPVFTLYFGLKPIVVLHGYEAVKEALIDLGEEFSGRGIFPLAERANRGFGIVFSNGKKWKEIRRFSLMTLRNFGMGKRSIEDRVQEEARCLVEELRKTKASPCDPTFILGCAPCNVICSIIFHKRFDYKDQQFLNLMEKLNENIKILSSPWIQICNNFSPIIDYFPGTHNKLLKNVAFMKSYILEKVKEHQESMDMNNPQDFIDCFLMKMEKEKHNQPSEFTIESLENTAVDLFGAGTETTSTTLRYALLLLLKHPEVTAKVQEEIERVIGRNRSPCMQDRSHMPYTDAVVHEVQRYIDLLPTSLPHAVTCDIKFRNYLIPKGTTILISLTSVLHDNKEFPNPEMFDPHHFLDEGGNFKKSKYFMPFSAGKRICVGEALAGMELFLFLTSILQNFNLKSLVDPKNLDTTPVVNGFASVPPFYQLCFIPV

Cytochrome P450 2C8 [7] = biological target: T3, Cytochrome P450 2C8 (Homo sapiens, UniProt P10632); assay: Reversible inhibition of CYP2C8 in human liver microsomes; type: ADME, Microsome
T3 sequence (P10632 whole entry): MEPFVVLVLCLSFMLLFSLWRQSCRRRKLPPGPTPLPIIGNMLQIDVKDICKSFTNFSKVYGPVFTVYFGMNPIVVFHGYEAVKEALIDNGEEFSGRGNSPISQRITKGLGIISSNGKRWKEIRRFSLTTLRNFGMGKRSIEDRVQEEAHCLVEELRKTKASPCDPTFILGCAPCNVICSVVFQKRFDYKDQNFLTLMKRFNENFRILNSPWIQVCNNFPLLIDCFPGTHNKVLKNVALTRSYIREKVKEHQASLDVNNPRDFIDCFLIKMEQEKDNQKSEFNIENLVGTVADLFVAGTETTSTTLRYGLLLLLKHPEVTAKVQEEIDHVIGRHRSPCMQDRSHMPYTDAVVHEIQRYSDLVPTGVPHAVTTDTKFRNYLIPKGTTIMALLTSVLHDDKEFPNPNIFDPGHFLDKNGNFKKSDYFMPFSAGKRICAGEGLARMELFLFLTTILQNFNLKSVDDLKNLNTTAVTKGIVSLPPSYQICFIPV

Cytochrome P450 2C8 [8] = biological target: T3, Cytochrome P450 2C8; assay: Inhibition of CYP2C8; type: ADME
[9] = Lipophilicity, log D of the compound; type: physicochemical; settings: octanol/water
CYP2C19 = CYP2C19 (Homo sapiens, UniProt P33261); assay: (§3) Time dependent inhibition of CYP2C19
Sequence of CYP2C19 (P33261 whole entry): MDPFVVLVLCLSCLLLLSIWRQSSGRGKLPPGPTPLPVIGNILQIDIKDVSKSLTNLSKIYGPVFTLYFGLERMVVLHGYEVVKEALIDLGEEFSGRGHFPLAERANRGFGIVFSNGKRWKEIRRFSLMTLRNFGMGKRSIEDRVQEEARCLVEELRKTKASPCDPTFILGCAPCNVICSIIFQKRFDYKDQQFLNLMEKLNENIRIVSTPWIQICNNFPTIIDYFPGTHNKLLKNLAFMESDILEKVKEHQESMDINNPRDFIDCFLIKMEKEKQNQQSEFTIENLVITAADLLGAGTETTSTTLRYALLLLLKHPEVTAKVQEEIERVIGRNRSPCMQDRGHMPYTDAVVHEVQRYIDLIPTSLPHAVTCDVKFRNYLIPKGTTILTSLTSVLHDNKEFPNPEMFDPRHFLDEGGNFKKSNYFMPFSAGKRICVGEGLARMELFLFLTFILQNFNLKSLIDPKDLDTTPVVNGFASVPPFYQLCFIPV

Cytochrome P450 2C19 = Cytochrome P450 2C19 (Homo sapiens, UniProt P33261); assay: as §3
Sequence of Cytochrome P450 2C19 (P33261 whole entry): as above

Cytochrome P450 3A4 [10] = biological target: T2, Cytochrome P450 3A4; assay: Time dependent inhibition of CYP3A4-mediated testosterone-6-beta hydroxylation in human liver microsome; type: ADME
CYP3A4 [11] = biological target: T1, CYP3A4; assay: Inhibition of CYP3A4-mediated testosterone 6 beta hydroxylation in human liver microsome by Dixon plot analysis; type: ADME; settings: liver microsomes, probe testosterone (6 beta-hydroxylation)
CYP3A4 [12] = biological target: T1, CYP3A4; assay: (§4) Time dependent inhibition of CYP3A4; type: ADME
Cytochrome P450 3A4 [13] = biological target: T2, Cytochrome P450 3A4; assay: as §4; type: ADME
Cytochrome P450 2C8 [14] = biological target: T3, Cytochrome P450 2C8; assay: (§5) Time dependent inhibition of CYP2C8 in human liver microsomes; type: ADME, Microsome
CYP2C8 = biological target: T4, CYP2C8 (Homo sapiens, UniProt P10632); assay: as §5; type: ADME, Microsome; settings: human, liver microsomes
T4 sequence (P10632 whole entry): T3 sequence (P10632 whole entry)

Cytochrome P450 2C8 [15] = biological target: T3, Cytochrome P450 2C8; assay: Inhibition of CYP2C8 in human liver microsomes in presence of NADPH; type: ADME, Microsome
[16] = Oral bioavailability in human; type: ADME, organism-based; settings: in vivo
[17] = Half life in human; type: ADME, organism-based; settings: in vivo
[18] = Clearance in human; type: ADME, organism-based; settings: in vivo

T2 sequence (P08684 whole entry): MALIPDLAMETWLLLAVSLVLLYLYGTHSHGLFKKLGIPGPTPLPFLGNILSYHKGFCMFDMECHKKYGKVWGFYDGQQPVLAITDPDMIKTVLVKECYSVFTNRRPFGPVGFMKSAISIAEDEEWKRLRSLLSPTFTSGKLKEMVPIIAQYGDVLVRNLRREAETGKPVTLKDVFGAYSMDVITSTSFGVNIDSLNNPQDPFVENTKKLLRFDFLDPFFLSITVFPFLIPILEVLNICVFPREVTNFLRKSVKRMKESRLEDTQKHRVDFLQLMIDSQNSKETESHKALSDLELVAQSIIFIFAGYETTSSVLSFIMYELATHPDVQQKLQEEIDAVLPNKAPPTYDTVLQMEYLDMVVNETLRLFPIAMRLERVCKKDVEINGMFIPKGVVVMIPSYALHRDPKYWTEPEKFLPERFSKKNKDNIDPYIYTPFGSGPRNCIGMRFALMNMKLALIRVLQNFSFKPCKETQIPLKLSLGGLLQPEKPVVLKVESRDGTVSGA
T1 sequence (P08684 whole entry): as above

`COc1cc(CC(=O)O)ccc1Oc1ccc2[nH]c(C)cc2c1NS(=O)(=O)c1ccc(Cl)cc1Cl` showed a kinact (CYP3A4 [1]) of 0.00267 s⁻¹ and a Ki (Cytochrome P450 3A4 [2]) of 18 µM.
Work on `CC(=O)Oc1cc2c(s1)CCN(C(C(=O)C1CC1)c1ccccc1F)C2` (stereo not given) yielded an Activity (Homo sapiens [3]) of 18% and an Activity (Homo sapiens [4]) of 23%.
Work on `CN(c1ncccc1CNc1nc(Nc2ccc3c(c2)CC(=O)N3)ncc1C(F)(F)F)S(C)(=O)=O` [PF-00562271] yielded a kinact (CYP3A4 [5]) of 0.00383 s⁻¹ and a Ki (Cytochrome P450 3A4 [6]) of 12 µM.
`Cc1ccc(C)c(OCCCC(C)(C)C(=O)O)c1` [GEMFIBROZIL] showed an IC50 (Cytochrome P450 2C9) of 9.6 µM, an IC50 (Cytochrome P450 2C8 [7]) of 95 µM and an IC50 (Cytochrome P450 2C8 [8]) of 28 µM.
For `O=c1n(CCCN2CCN(c3cccc(Cl)c3)CC2)nc2ccccn12` [TRAZODONE], the logD [9] was 1.58.
Compound `COC(=O)[C@H](c1ccccc1Cl)N1CCc2sccc2C1` [CLOPIDOGREL] has an Activity (Homo sapiens [3]) of 60%, an Activity (Homo sapiens [4]) of 52% and a kinact (CYP2C19) of 0.000917 s⁻¹. It also gave a Ki (Cytochrome P450 2C19) of 14.3 µM.
In the case of `CC(C)CN(C[C@@H](O)[C@H](Cc1ccccc1)NC(=O)O[C@H]1CCOC1)S(=O)(=O)c1ccc(N)cc1`, the Ki (Cytochrome P450 3A4 [10]) is reported as 0.37 µM and the kinact (CYP3A4 [11]) is reported as 0.00983 s⁻¹.
Compound `CC(C)(C)NC(=O)C1(C2CCCCC2)CCN(C(=O)[C@@H](Cc2ccc(Cl)cc2)NC(=O)[C@H]2CCc3ccccc3[C@H]2N)CC1` has a kinact (CYP3A4 [12]) of 0.00133 s⁻¹ and a Ki (Cytochrome P450 3A4 [13]) of 23 µM.
`Clc1ccccc1CN1CCc2sccc2C1` [TICLOPIDINE] showed an Activity (Homo sapiens [3]) of 85% and an Activity (Homo sapiens [4]) of 84%.
`Cc1ccc(C)c(OCCCC(C)(C)C(=O)O[C@@H]2O[C@H](C(=O)O)[C@@H](O)[C@H](O)[C@H]2O)c1` gave an IC50 (Cytochrome P450 2C8 [8]) of 4.1 µM, a Ki (Cytochrome P450 2C8 [14]) of 20 µM and a kinact (CYP2C8) of 0.0035 s⁻¹. It also gave an IC50 (Cytochrome P450 2C8 [15]) of 1.8 µM.
`CCc1nn(CCCN2CCN(c3cccc(Cl)c3)CC2)c(=O)n1CCOc1ccccc1` [NEFAZODONE] showed a bioavailability [16] of 20%, a half-life [17] of 1 h and a logD [9] of 3.43.
Compound `O=C1CCc2ccc(OCCCCN3CCN(c4cccc(Cl)c4Cl)CC3)cc2N1` [ARIPIPRAZOLE] has a clearance [18] of 0.8 mL/min/kg, a bioavailability [16] of 87% and a logD [9] of 5.54.

— ChEMBL document CHEMBL2176960, “Mechanism-based inactivation (MBI) of cytochrome P450 enzymes: structure-activity relationships and discovery strategies to mitigate drug-drug interaction risks” (J Med Chem, 2012)
